Consider four compounds from article PMC7671950 (Cellular and molecular neurobiology, 2020).

In experiment [1] the target is T1, 6TM/E11 (Mus musculus, UniProt P42866).
The target in experiment [2] is T2, mMOR-1 (Mus musculus, UniProt P42866). Put plainly: [35S]GTPγS functional assay. The format is biochemical. To be noted: for functional character at MOR-1: [35S]GTPγS functional assays; for Emax: read-out: mMOR-1 Emax; for mMOR-1 Emax: percent maximal stimulation relative to DAMGO at 1000 nM. (GTPγS resists hydrolysis and so accumulates on activated G proteins.)
T2 sequence (P42866 whole entry): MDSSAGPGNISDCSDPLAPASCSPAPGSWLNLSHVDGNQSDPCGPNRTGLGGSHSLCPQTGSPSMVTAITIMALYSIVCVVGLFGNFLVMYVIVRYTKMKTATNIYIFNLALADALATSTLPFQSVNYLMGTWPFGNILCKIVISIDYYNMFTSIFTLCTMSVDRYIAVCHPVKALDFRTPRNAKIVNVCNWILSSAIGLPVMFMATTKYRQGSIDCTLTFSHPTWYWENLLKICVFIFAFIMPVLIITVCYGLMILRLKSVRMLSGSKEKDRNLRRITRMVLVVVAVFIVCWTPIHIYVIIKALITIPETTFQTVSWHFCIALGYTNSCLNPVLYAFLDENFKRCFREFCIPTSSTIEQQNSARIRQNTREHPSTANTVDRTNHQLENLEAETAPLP
In experiment [3] the target is T2, mMOR-1. To be noted: read-out: Ki mMOR-1; values from literature; ref Majumdar et al. 2012; cited from earlier work.
Experiment [4] deals with T1, 6TM/E11. To be noted: read-out: Ki 6TM/E11; values from literature; ref Majumdar et al. 2012; cited from earlier work.
The next experiment has as its target mKOR-1 (Mus musculus, UniProt P33534). To be noted: read-out: Ki mKOR-1; values from literature; ref Majumdar et al. 2012; cited from earlier work.
The target of experiment [5] is triple knockout mouse brain (Mus musculus, UniProt P42866). To be noted: read-out: Ki Triple KO; values from literature; ref Majumdar et al. 2012; cited from earlier work.
Chain of triple knockout mouse brain (P42866 96-398): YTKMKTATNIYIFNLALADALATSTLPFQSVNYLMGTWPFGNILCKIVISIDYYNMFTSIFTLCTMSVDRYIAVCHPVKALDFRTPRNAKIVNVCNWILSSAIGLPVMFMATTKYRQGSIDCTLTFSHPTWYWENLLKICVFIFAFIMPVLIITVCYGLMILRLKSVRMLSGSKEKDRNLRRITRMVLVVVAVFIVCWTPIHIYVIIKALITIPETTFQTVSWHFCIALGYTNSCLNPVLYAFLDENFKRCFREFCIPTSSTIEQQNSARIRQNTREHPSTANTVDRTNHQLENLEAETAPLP
For a further experiment, the target named is mDOR-1 (Mus musculus, UniProt P32300). To be noted: read-out: Ki mDOR-1; values from literature; ref Majumdar et al. 2012; cited from earlier work.
Chain of mDOR-1 (P32300 whole entry): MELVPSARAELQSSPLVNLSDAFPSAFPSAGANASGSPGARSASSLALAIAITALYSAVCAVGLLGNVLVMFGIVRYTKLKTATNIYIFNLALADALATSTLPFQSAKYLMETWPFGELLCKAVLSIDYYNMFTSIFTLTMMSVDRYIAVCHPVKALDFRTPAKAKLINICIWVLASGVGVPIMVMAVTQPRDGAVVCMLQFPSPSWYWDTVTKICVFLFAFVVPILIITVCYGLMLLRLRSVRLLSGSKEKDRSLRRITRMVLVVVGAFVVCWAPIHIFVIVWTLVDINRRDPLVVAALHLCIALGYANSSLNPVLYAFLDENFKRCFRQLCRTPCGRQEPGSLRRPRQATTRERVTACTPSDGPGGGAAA
Setting [6] is: read-out: mMOR-1 EC50, [35S]GTPγS binding, mean ± SEM, 3 replications.

Structures are written as SMILES. Read-outs that look alike come from different tables or passages of the source.

T1 sequence (P42866 95-386 limits assumed): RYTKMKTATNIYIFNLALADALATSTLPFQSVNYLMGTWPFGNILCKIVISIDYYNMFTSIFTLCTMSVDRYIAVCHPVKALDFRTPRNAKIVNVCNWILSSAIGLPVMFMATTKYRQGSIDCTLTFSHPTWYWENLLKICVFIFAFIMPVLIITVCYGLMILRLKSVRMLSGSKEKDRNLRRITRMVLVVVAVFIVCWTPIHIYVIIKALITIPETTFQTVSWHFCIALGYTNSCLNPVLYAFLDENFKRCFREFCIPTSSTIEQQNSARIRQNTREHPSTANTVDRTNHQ
Chain of mKOR-1 (P33534 whole entry): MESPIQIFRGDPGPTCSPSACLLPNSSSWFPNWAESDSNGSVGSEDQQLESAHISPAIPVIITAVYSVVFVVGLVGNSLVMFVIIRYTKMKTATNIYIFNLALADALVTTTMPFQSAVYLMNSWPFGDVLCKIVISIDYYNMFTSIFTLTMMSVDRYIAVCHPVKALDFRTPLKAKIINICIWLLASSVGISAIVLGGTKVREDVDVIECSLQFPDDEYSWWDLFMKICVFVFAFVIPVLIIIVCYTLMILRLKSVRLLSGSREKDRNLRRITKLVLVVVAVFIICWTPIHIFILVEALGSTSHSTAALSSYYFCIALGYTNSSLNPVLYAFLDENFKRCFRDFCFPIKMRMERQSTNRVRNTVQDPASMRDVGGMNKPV

On 6TM/E11 [1], `C=CCN1CC[C@]23c4c5ccc(O)c4O[C@H]2[C@H](NC(=O)c2ccc(N=[N+]=[N-])c(I)c2)CC[C@@]3(O)[C@H]1C5` [IBzA 10, N-((4R,4aS,7R,7aR,12bS)-3-Allyl-4a,9-dihydroxy-2,3,4,4a,5,6,7,7a-octahydro-1H-4,12-methanobenzofuro[3,2-e]isoquinolin-7-yl)-4-azido-3-iodobenzamide] gave a Ki of 4.64 ± 0.2 nM. Further, on mMOR-1 [2], the EC50 (as a rule, the concentration that produces a half-maximal response) came out at 0.86 ± 0.24 nM; the “functional character at MOR-1” value is “full agonists”; the Emax (usually the maximal effect, on the per cent scale that the assay sets) worked out at 122 ± 3%.
In the case of `O=C(N[C@@H]1CC[C@@]2(O)[C@H]3Cc4ccc(O)c5c4[C@@]2(CCN3CC2CC2)[C@H]1O5)c1cccc(I)c1` [IBNtxA, 3’-iodobenzoylnaltrexamide], the Ki at mMOR-1 [3] is 0.11 ± 0.02 nM; at 6TM/E11 [4], 0.16 ± 0.04 nM; on mKOR-1, 0.03 ± 0.001 nM; in experiment [5], 0.12 ± 0.04 nM; at mDOR-1, 0.24 ± 0.1 nM. For the same compound, at mMOR-1 [2] (mean ± SEM), the “mMOR-1 Emax” value worked out at 101 ± 3%. Further, the EC50 on mMOR-1 [2] (setting [6]) was determined as 0.49 ± 0.12 nM.
For `C#CCN1CC[C@]23c4c5ccc(O)c4O[C@H]2[C@H](NC(=O)c2ccc(N=[N+]=[N-])c(I)c2)CC[C@@]3(O)[C@H]1C5` [Alkynyl-IBzA 17, 4-Azido-N-((4R,4aS,7R,7aR,12bS)-4a,9-dihydroxy-3-(prop-2-yn-1-yl)-2,3,4,4a,5,6,7,7a-octahydro-1H-4,12-methanobenzofuro[3,2-e]isoquinolin-7-yl)-3-iodobenzamide], at 6TM/E11 [1], the Ki worked out at 12 ± 1.63 nM. Also, on mMOR-1 [2], a half-maximal effect (EC50) was put at 1.1 ± 0.1 nM, the “functional character at MOR-1” value is reported as “full agonists” and the Emax is 103 ± 3%.
For the compound `C=CCN1CC[C@]23c4c5ccc(O)c4O[C@H]2[C@H](NC(=O)c2cccc(I)c2)CC[C@@]3(O)[C@H]1C5` [IBNalA], the Ki at mMOR-1 [3] was 0.22 ± 0.12 nM; on 6TM/E11 [4] it was 0.25 ± 0.12 nM; on mKOR-1, 0.08 ± 0.06 nM; on mDOR-1, 2.55 ± 0.18 nM. The “mMOR-1 Emax” value at mMOR-1 [2] (mean ± SEM) is recorded as 75 ± 3.5%. Besides, the concentration giving a half-maximal response (EC50) on mMOR-1 [2] (setting [6]) was 1.4 ± 0.3 nM.
